Tests used:
[1] = tested on: serum corticosterone in dexamethasone-suppressed mice; experiment: in vivo Serum Corticosteroid Induction Assay; parameters: species or system FVB/N mice; settings: for Percent reduction in serum corticosteroid: compared to unmodified mACTH(1–24), 1 μg s.c., blood one hour after administration
Experimental: An in vivo Serum Corticosteroid Induction Assay measures the level of corticosteroid or corticosterone in the blood stream of a subject. More specifically, the in vivo Serum Corticosteroid Induction Assay can include the following steps: first, an agent to suppress endogenous ACTH production was administered to a mouse subject, such as an intraperitoneal injection of dexamethasone; second, after waiting a suitable period of time for suppression of endogenous ACTH production (e.g., 1.5–2.0 hours), a test compound can be administered to the mouse by a suitable method, such as intraperitoneal or subcutaneous injection; and third, after waiting a suitable period of time (e.g., 1 hour) for action of the injected test compound, a blood sample can be taken from the subject and the level of serum corticosterone can be determined by a suitable method, such as a competitive radioimmunoassay using ^125I RIA kit (ICN, Costa Mesa, Calif.). Example 1 describes a murine in vivo Serum Corticosteroid Induction Assay in detail.
The corticosteroid or corticosterone secretion induced in vivo by an ACTH analog compound was compared to the level of corticosteroid secretion produced by an unmodified ACTH compound by measuring blood serum corticosteroid after administering either the ACTH or ACTH analog as test compounds. […] ACTH analog compositions with decreased function were identified by measuring corticosterone levels using standard radioimmunoassay (RIA) analysis on blood samples collected one hour after administering the mACTH(1–24) or ACTH analog compound to dexamethasone-suppressed mice. In FIG. 1, the potency of various ACTH analog peptides is expressed as per cent induction of corticosterone, with mouse ACTH being 100%. […] The percent of corticosterone induction 12 of ACTH analog Compounds in Samples 2–10 are shown as a percentage of the concentration of serum corticosterone 20 measured for unmodified mACTH(1–24) in the in vivo Serum Corticosteroid Adrenal Induction Assay. The structural modifications and measured percentage reduction in serum measured for Samples 2–10 in FIG. 1 are shown in Table 3 below.
The in vivo Serum Corticosteroid Induction Assay was performed according the following method. First, two to three month-old male FVB/N mice from our colony, five per group, were injected intraperitoneally with dexamethasone (0.4 mg/0.1 ml PBS per mouse; Sigma, St. Louis, Mo.) to suppress their endogenous ACTH production. See Hajos, G T et al., “Studies of the potency of polypeptides with ACTH action by a new method based on continuous measurement of plasma corticosterone,” Steroids Lipids Res 3:225–228 (1972), Costa, J L, et al., “Mutational analysis of evolutionarily conserved ACTH residues,” Gen Comp Endocrinol, 136:12–16 (2004), and Karpac, J, et al., “Development, Maintenance, and Function of the Adrenal Gland in Early Postnatal Pro-opiomelanocortin Null Mutant Mice,” Endocrinology (2005), published online ahead of print Feb. 24, 2005, all of which are incorporated herein by reference.
Second, ninety to one hundred twenty minutes later, the dexamethasone-suppressed mice were injected subcutaneously between the shoulder blades with either unmodified mACTH(1–24) or one of several ACTH analog peptide compounds (1 μg/0.1 mL PBS/0.5% BSA), or with vehicle alone (control) (0.1 mL PBS/0.5% BSA). The following ACTH analog peptide compounds were administered to separate mice: 1: murine ACTH1–24; 2: V26F,E30K; 3: P19W,K21E,Y23R; 4: E30K,P36R; 5: ALA19–24; 6: V26F,P36R; 7: P19W, K21E; 8: P19W,K21A,delY23; 9: P19W,K21A; 10: KRRP16-19RMW (AT814) (SEQ ID NO:20).
Third, one hour later, blood was collected within less than 1 minute from a small incision in the tail, and serum was flash-frozen and stored at −80° C. until assayed. Serum corticosterone was determined by competitive radioimmunoassay (^125I RIA kit; ICN, Costa Mesa, Calif.) according to the manufacturer's recommendations. One microliter of serum was used per assay sample. […]

[2] = tested on: corticosterone production by explanted mouse adrenal halves; experiment: in vitro Serum-free Adrenal Inhibition Assay; assay type: cell-based; settings: in vivo by Example 1, in vitro by Example 4
Experimental: A series of separate in vitro Serum-Free Adrenal Corticosteroid Inhibition Assay were performed to identify ACTH analogs that inhibit ACTH-induced adrenal hormone production in vitro. The concentration of corticosterone was measured according to the procedure of Example 4 in a serum-free culture medium containing explanted adrenal membrane and unmodified ACTH, AT814 ACTH analog (SEQ ID NO:20), or a combination of ACTH and AT814 at 100 ng/mL each. […] Corticosterone levels were taken at 2.0 hours after the adrenal membrane was placed in the serum free M199 medium, and each corticosterone level in Table 5 is an average of five samples.
The in vitro Serum-free Adrenal Inhibition Assay was performed according the following method. First, adrenals were removed from mice, dissected free of fat, and cut in half. See Costa, J L, et al., “Mutational analysis of evolutionarily conserved ACTH residues,” Gen Comp Endocrinol. 136:12–16 (2004); and Weber, M M, et al., “Postnatal overexpression of insulin-like growth factor II in transgenic mice is associated with adrenocortical hyperplasia and enhanced steroidogenesis,” Endocrinology 140:1537–1543 (1999), incorporated herein by reference.
Second, each adrenal half was placed into an individual well of a 4-well dish, one dish per mouse. Adrenal halves were incubated at 5% CO2, 37° C., in 0.5 ml serum-free medium (M199; Invitrogen) for 30 minutes to equilibrate.
Third, medium was removed and replaced by 0.5 ml M199 containing ACTH, AT814, or both, at 100 ng/ml each; controls had no peptides added.
Fourth, after 2 hours of incubation, the medium was removed, pooled for all four halves from each mouse, and assayed by corticosterone using standard RIA methods. corticosterone was determined by competitive radioimmunoassay (^125I RIA kit; ICN, Costa Mesa, Calif.) according to the manufacturer's recommendations. One microliter of serum was used per assay sample. Samples were run in duplicates.

Substance	Percent reduction in serum corticosteroid [1]	further results
(P19W, K21E)mACTH (SYSMEHFRWGKPVGKKRRWVEVYPNVAENESAEAFPLEF; Corticotropin; UniProt P01193 124-162, looked up, variant P19W K21E) [Sample 7]	61.1%	
(P19W, K21E, Y23R)mACTH (SYSMEHFRWGKPVGKKRRWVEVRPNVAENESAEAFPLEF; Corticotropin; UniProt P01193 124-162, looked up, variant P19W K21E Y23R) [Sample 3]	36.5%	
(P19W, K21A, delY23)mACTH (SYSMEHFRWGKPVGKKRRWVAVPNVAENESAEAFPLEF; Corticotropin; UniProt P01193 124-162, looked up, variant P19W K21A Y23*) [Sample 8]	76.0%	
(V26F, P36R)mACTH (SYSMEHFRWGKPVGKKRRPVKVYPNFAENESAEAFRLEF; Corticotropin; UniProt P01193 124-162, looked up, variant V26F P36R) [Sample 6]	59.3%	
(PVKVYP19-24AAAAA)mACTH [Sample 5]	51%	in vitro activity compared with in vivo activity (FIG. 5) [2]: increased serum half life measured in vivo; in vivo activity in excess of the in vitro activity of unmodified mACTH (FIG. 5) ([1]; method of Example 1): about 50%; in vivo activity, % corticosterone induction relative to mACTH(1–24) (FIG. 5) ([1]; method of Example 1): greater relative to both mACTH and to other ACTH analogs
(V26F, E30K)mACTH (SYSMEHFRWGKPVGKKRRPVKVYPNFAENKSAEAFPLEF; Corticotropin; UniProt P01193 124-162, looked up, variant V26F E30K) [Sample 2]	18.3%	
(E30K, P36R)mACTH (SYSMEHFRWGKPVGKKRRPVKVYPNVAENKSAEAFRLEF; Corticotropin; UniProt P01193 124-162, looked up, variant E30K P36R) [Sample 4]	41.5%	
(P19W, K21A)mACTH (SYSMEHFRWGKPVGKKRRWVAVYPNVAENESAEAFPLEF; Corticotropin; UniProt P01193 124-162, looked up, variant P19W K21A) [Sample 9]	83.4%	

Source: US7264314B2, “Adrenocorticotropic hormone analogs and related methods” (priority 2004, dated 2007)
